Experimental data reported in ChEMBL document CHEMBL6071136, “Discovery of macrocyclic covalent inhibitors for severe acute respiratory syndrome coronavirus 2 3CL protease” (Bioorg Med Chem, 2024).

How the values were obtained:
[1] = Metabolic stability in human liver S9 fraction assessed as half life measured upto 60 mins by LC/MS-MS analysis; format: ADME, subcellular
SARS-CoV-2 = assay: microbe, parasite or virus in culture; details: Severe acute respiratory syndrome coronavirus 2, Huh-7, 24 h
[2] = Apparent permeability across apical to basolateral side in human Caco-2 cells incubated for 2 hrs by LC-MS/MS analysis; format: ADME, cell-based
[3] = target: Replicase polyprotein 1ab (Severe acute respiratory syndrome coronavirus 2, UniProt P0DTD1); assay: Inhibition of SARS-CoV-2 3CL protease using Dabcyl-KTSAVLQSGFRKM-(Edans) as substrate preincubated for 30 mins followed by substrate addition and measured after 60 mins by fluorescence based microplate reader assay
[4] = Metabolic stability in human liver microsomes assessed as half life measured upto 60 mins in presence of NADPH by LC/MS-MS analysis; format: ADME, Microsome
[5] = Efflux ratio of apparent permeability across basolateral to apical side over apical to basolateral side in human Caco-2 cells; format: ADME, cell-based
[6] = AUClast in Sprague-Dawley rat at 10 mg/kg, po measured upto 24 hrs by LC/MS-MS analysis; format: ADME, organism-based; details: in vivo
[7] = Metabolic stability in rat liver microsomes assessed as half life measured upto 60 mins in presence of NADPH by LC/MS-MS analysis; format: ADME, Microsome
[8] = Tmax in Sprague-Dawley rat at 10 mg/kg, po measured upto 24 hrs by LC/MS-MS analysis; format: ADME, organism-based; details: in vivo
[9] = Cmax in Sprague-Dawley rat at 10 mg/kg, po measured upto 24 hrs by LC/MS-MS analysis; format: ADME, organism-based; details: in vivo
[10] = Half-life in Sprague-Dawley rat at 10 mg/kg, po measured upto 24 hrs by LC/MS-MS analysis; format: ADME, organism-based; details: in vivo
[11] = Stability of compound in FaSSGF at 10 uM measured after 4 hrs by LC-MS analysis; format: physicochemical

| SMILES | half-life [1] | EC50 (SARS-CoV-2) | Papp A→B at 2 h [2] | IC50 [3] | half-life [4] | efflux ratio [5] | AUC(0-t) at 24 h [6] | half-life [7] | Tmax [8] | Cmax [9] | half-life [10] | Stability [11] |
| --- | --- | --- | --- | --- | --- | --- | --- | --- | --- | --- | --- | --- |
| CC1(C)COC(=O)[C@@H]2C[C@@H](C[C@@H](C#N)NC(=O)[C@@H]3[C@@H]4[C@H](CN3C(=O)[C@H]1NC(=O)OC1CC1)C4(C)C)C(=O)N2 | > 180 min | 67 nM | 0.08 ×10⁻⁶ cm/s | 17 nM | > 180 min | 20 |  |  |  |  |  |  |
| CC1(C)CCCC[C@@H]2C[C@@H](C[C@@H](C#N)NC(=O)[C@@H]3[C@@H]4[C@H](CN3C(=O)[C@H]1NC(=O)C(F)(F)F)C4(C)C)C(=O)N2 |  | 84 nM |  | 10 nM | 4.4 min |  |  |  |  |  |  |  |
| CC(C)(C)C(=O)N[C@@H]1C(=O)N2C[C@H]3[C@@H]([C@H]2C(=O)N[C@H](C#N)C[C@@H]2C[C@H](NC2=O)C(=O)NCC1(C)C)C3(C)C |  |  |  | 307 nM |  |  |  |  |  |  |  |  |
| CN1CC(C)(C)[C@H](NC(=O)OCc2ccccc2)C(=O)N2C[C@H]3[C@@H]([C@H]2C(=O)N[C@H](C#N)C[C@@H]2C[C@H](NC2=O)C1=O)C3(C)C | 0.17 min | > 10000 nM | 0.17 ×10⁻⁶ cm/s | > 10000 nM |  | 12 |  |  |  |  |  |  |
| CC1(C)CNC(=O)[C@@H]2C[C@@H](C[C@@H](C#N)NC(=O)[C@@H]3[C@@H]4[C@H](CN3C(=O)[C@H]1NC(=O)C(F)(F)F)C4(C)C)C(=O)N2 |  | 264 nM |  | 18 nM | > 180 min |  |  |  |  |  |  |  |
| CC1(C)COC(=O)[C@@H]2C[C@@H](C[C@@H](C#N)NC(=O)[C@@H]3[C@@H]4[C@H](CN3C(=O)[C@H]1NC(=O)C(F)(F)C1CC1)C4(C)C)C(=O)N2 |  | 36 nM | 0.13 ×10⁻⁶ cm/s | 14 nM | 71 min | 96.4 | 119 ng·h/mL | 34.8 min | 20 min | 131 ng/mL | 38.5 min |  |
| CC1(C)COC(=O)[C@@H]2C[C@@H](C[C@@H](C#N)NC(=O)[C@@H]3[C@@H]4[C@H](CN3C(=O)[C@H]1NC(=O)CC1CC1)C4(C)C)C(=O)N2 |  | 310 nM |  | 21 nM | 78 min |  |  |  |  |  |  |  |
| CC1(C)COC(=O)[C@@H]2C[C@@H](C[C@@H](C#N)NC(=O)[C@@H]3[C@@H]4[C@H](CN3C(=O)[C@H]1NC(=O)C(F)(F)c1ccc(F)cc1)C4(C)C)C(=O)N2 |  | 130 nM | 0.1 ×10⁻⁶ cm/s | 22 nM | 6 min | 206 |  |  |  |  |  |  |
| CC1(C)COC(=O)[C@@H]2C[C@@H](C[C@@H](C#N)NC(=O)[C@@H]3[C@@H]4[C@H](CN3C(=O)[C@H]1NC(=O)C(F)(F)Cc1ccccc1)C4(C)C)C(=O)N2 |  | 49 nM | 0.08 ×10⁻⁶ cm/s | 23 nM | 1.7 min | 154 |  |  |  |  |  |  |
| CC1(C)CNC(=O)[C@@H]2C[C@@H](C[C@@H](C#N)NC(=O)[C@@H]3[C@@H]4[C@H](CN3C(=O)[C@H]1NC(=O)C1CC1)C4(C)C)C(=O)N2 |  | 6570 nM |  | 32 nM | > 180 min |  |  |  |  |  |  |  |
| CC1(C)COC(=O)[C@@H]2C[C@@H](C[C@@H](C#N)NC(=O)[C@@H]3[C@@H]4[C@H](CN3C(=O)[C@H]1NC(=O)C1CC1)C4(C)C)C(=O)N2 | > 180 min | 190 nM | 0.08 ×10⁻⁶ cm/s | 12 nM | 154 min | 22 |  |  |  |  |  |  |
| COC(=O)N[C@@H]1C(=O)N2C[C@H]3[C@@H]([C@H]2C(=O)N[C@H](C#N)C[C@@H]2C[C@H](NC2=O)C(=O)OCC1(C)C)C3(C)C | > 180 min | 52 nM | 0.16 ×10⁻⁶ cm/s | 8.6 nM | > 180 min | 30 | 72.9 ng·h/mL | 76.2 min | 20 min | 87.5 ng/mL | 68.4 min | Stable |
| COC(=O)N[C@@H]1C(=O)N2C[C@H]3[C@@H]([C@H]2C(=O)N[C@H](C#N)C[C@@H]2C[C@@H](CCCCC1(C)C)NC2=O)C3(C)C |  | 100 nM |  | 4.6 nM | 13.9 min |  |  |  |  |  |  |  |
| CC1(C)CNC(=O)[C@@H]2C[C@H](C[C@@H](C#N)NC(=O)[C@@H]3[C@@H]4[C@H](CN3C(=O)[C@H]1NC(=O)OCc1ccccc1)C4(C)C)C(=O)N2 |  |  | 0.05 ×10⁻⁶ cm/s | 12 nM |  | 103 |  |  |  |  |  |  |
| CC1(C)CCCC[C@@H]2C[C@@H](C[C@@H](C#N)NC(=O)[C@@H]3[C@@H]4[C@H](CN3C(=O)[C@H]1NC(=O)OCc1ccccc1)C4(C)C)C(=O)N2 |  | 31 nM |  | 27 nM |  |  |  |  |  |  |  |  |
| CC1(C)COC(=O)[C@@H]2C[C@@H](C[C@@H](C#N)NC(=O)[C@@H]3[C@@H]4[C@H](CN3C(=O)[C@H]1NC(=O)C(F)(F)F)C4(C)C)C(=O)N2 | > 180 min | 181 nM | 0.5 ×10⁻⁶ cm/s | 34 nM | > 180 min | 34 |  |  |  |  |  |  |
| CC1(C)COC(=O)[C@@H]2C[C@@H](C[C@@H](C#N)NC(=O)[C@@H]3[C@@H]4[C@H](CN3C(=O)[C@H]1NC(=O)OCc1ccccc1)C4(C)C)C(=O)N2 |  | 25 nM | 0.16 ×10⁻⁶ cm/s | 6.4 nM | 6.5 min | 108 |  |  |  |  |  |  |
| CN1CC(C)(C)[C@H](NC(=O)C(F)(F)F)C(=O)N2C[C@H]3[C@@H]([C@H]2C(=O)N[C@H](C#N)C[C@@H]2C[C@H](NC2=O)C1=O)C3(C)C |  | > 10000 nM |  | > 10000 nM |  |  |  |  |  |  |  |  |
| CC1(C)CNC(=O)[C@@H]2C[C@H](C[C@@H](C#N)NC(=O)[C@@H]3[C@@H]4[C@H](CN3C(=O)[C@H]1NC(=O)C(F)(F)F)C4(C)C)C(=O)N2 |  |  | 0.09 ×10⁻⁶ cm/s | 75 nM | > 180 min | 10 |  |  |  |  |  |  |
| Cc1cccc(C)c1OCC(=O)N[C@@H]1C(=O)N2C[C@H]3[C@@H]([C@H]2C(=O)N[C@H](C#N)C[C@@H]2C[C@H](NC2=O)C(=O)NCC1(C)C)C3(C)C |  | 5570 nM | 0.13 ×10⁻⁶ cm/s | 320 nM | 4 min | 64 |  |  |  |  |  |  |
| CC1(C)CNC(=O)[C@@H]2C[C@@H](C[C@@H](C#N)NC(=O)[C@@H]3[C@@H]4[C@H](CN3C(=O)[C@H]1NC(=O)OCc1ccccc1)C4(C)C)C(=O)N2 |  | 73 nM |  | 8.8 nM | 4.3 min |  |  | 4.3 min |  |  |  |  |
| COC(=O)N[C@@H]1C(=O)N2C[C@H]3[C@@H]([C@H]2C(=O)N[C@H](C#N)C[C@@H]2C[C@H](NC2=O)C(=O)OCCC1(C)C)C3(C)C |  | 179 nM | 0.03 ×10⁻⁶ cm/s | 8.9 nM | > 180 min | 65 |  |  |  |  |  |  |
| CC(C)(C)[C@H](NC(=O)C(F)(F)F)C(=O)N1C[C@H]2[C@@H]([C@H]1C(=O)N[C@H](C#N)C[C@@H]1CCNC1=O)C2(C)C |  |  | 0.27 ×10⁻⁶ cm/s |  | 20.6 min |  | 2020 ng·h/mL | 127 min |  | 2840 ng/mL | 76.2 min |  |
| CC1(C)CNC(=O)[C@@H]2C[C@@H](C[C@@H](C#N)NC(=O)[C@@H]3[C@@H]4[C@H](CN3C(=O)[C@H]1NC(=O)COc1ccc(F)cc1F)C4(C)C)C(=O)N2 |  | 1550 nM |  | 70 nM | 6.3 min |  |  |  |  |  |  |  |
